Laboratory results reported in the supplement of paper PMC10307832.

Key:
Assay in all cases: relative viability (nuclei count vs DMSO), 5 days (fraction); higher = more cells survive
Indole-3-carbinol = compound: OCc1c[nH]c2ccccc12 [Indole-3-carbinol]
Summary of the method: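 Viability is treated-well nuclei as a fraction of vehicle-well nuclei, reported as the median across plates. Before counting, lung cancer cell lines were kept overnight at 37 °C in 1536-well plates, pinned with five √10-spaced library-drug doses on vehicle-anchored plates, and left 5 days without medium change, then fixed, permeabilised and Hoechst-stained in one step, imaged at 4× and counted by MetaXpress. A plate passed only if control CV was below 25% and at least one doubling occurred.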

[1] = compound: OCc1c[nH]c2ccccc12 [Indole-3-carbinol] + O=C(CCCCCCC(=O)Nc1ccccc1)NO [Vorinostat] (partner 1 µM)
Summary of the method: (§1)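 Medians of duplicate plates are given as relative viability. That measure is the nuclei count in treated wells divided by the count in vehicle wells. Counts were taken on 4× images of lung cancer cell lines in 1536-well plates, 5 days after pin-tool dosing the day after seeding with one drug alone or a fixed anchor-drug dose plus five library-drug doses (not always all listed) in √10 steps.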

[2] = compound: OCc1c[nH]c2ccccc12 [Indole-3-carbinol] + NC(=O)Nc1cc(-c2cccc(F)c2)sc1C(=O)N[C@H]1CCCNC1 [AZD7762] (partner 0.2 µM)
Summary of the method: as §1

[3] = compound: OCc1c[nH]c2ccccc12 [Indole-3-carbinol] + CS(=O)(=O)CCNCc1ccc(-c2ccc3ncnc(Nc4ccc(OCc5cccc(F)c5)c(Cl)c4)c3c2)o1 [Lapatinib] (partner 2 µM)
Summary of the method: as §1

[4] = compound: OCc1c[nH]c2ccccc12 [Indole-3-carbinol] + CC(=O)Nc1cccc(-n2c(=O)n(C3CC3)c(=O)c3c(Nc4ccc(I)cc4F)n(C)c(=O)c(C)c32)c1 [Trametinib] (partner 0.02 µM)
Summary of the method: as §1

Cell Line	relative viability (Indole-3-carbinol; 0.253 µM)	relative viability (Indole-3-carbinol; 0.8 µM)	relative viability (Indole-3-carbinol; 2.53 µM)	relative viability (Indole-3-carbinol; 8 µM)	relative viability ([1]; first compound 0.253 µM)	relative viability ([1]; first compound 0.8 µM)	relative viability ([1]; first compound 2.53 µM)	relative viability ([1]; first compound 8 µM)	relative viability ([2]; first compound 0.253 µM)	relative viability ([2]; first compound 0.8 µM)	relative viability ([2]; first compound 2.53 µM)	relative viability ([2]; first compound 8 µM)	relative viability ([3]; first compound 0.253 µM)	relative viability ([3]; first compound 0.8 µM)	relative viability ([3]; first compound 2.53 µM)	relative viability ([3]; first compound 8 µM)	relative viability ([4]; first compound 0.253 µM)	relative viability ([4]; first compound 0.8 µM)	relative viability ([4]; first compound 2.53 µM)	relative viability ([4]; first compound 8 µM)
NCI-H838	1.01	0.935	0.98	0.935	0.741	0.737	0.766	0.654	1.05	0.84	0.975	0.883	1.09	0.805	0.959	0.949	0.593	0.499	0.525	0.495
NCI-H3122	1.07	0.986	1.02	0.983	1.05	1.05	1.06	0.885	1.1	1	1.07	0.899	1.05	1.01	1.04	1.05	0.229	0.255	0.234	0.248
SK-MES-1	1.02	1.08	0.991	0.953	1.16	1.08	1.08	0.986	–	–	–	–	0.455	0.501	0.452	0.421	0.539	0.627	0.56	0.54
NCI-H1944	0.971	0.793	0.955	0.962	0.529	0.472	0.595	0.523	0.517	0.441	0.509	0.54	0.856	0.606	0.922	0.843	0.425	0.378	0.393	0.417
LK-2	0.929	0.872	1.02	1.05	0.193	0.295	0.333	0.448	0.454	0.363	0.324	0.539	0.883	0.864	1.13	1.04	0.674	0.538	0.812	0.732
PC-3 [JPC-3]	1.05	1.04	1.05	0.953	0.827	0.926	0.801	0.875	0.723	0.925	0.765	0.91	0.462	0.441	0.399	0.439	0.749	0.719	0.678	0.667
COR-L23	1.06	1.09	1.08	0.934	0.445	0.492	0.459	0.371	–	–	–	–	0.921	0.918	0.998	0.887	0.619	0.557	0.703	0.549
NCI-H1355	1	1.11	0.97	0.961	0.612	0.69	0.667	0.63	0.859	0.806	0.799	0.778	1.08	0.981	0.975	0.887	0.43	0.343	0.386	0.415
NCI-H460	1.04	0.975	0.978	0.957	0.768	0.76	0.754	0.683	0.652	0.602	0.679	0.645	1.09	0.993	0.983	0.9	0.119	0.151	0.11	0.129
NCI-H1993	1.06	1.07	0.872	0.919	0.697	1.05	0.958	0.783	0.827	0.876	0.691	0.843	0.827	0.839	0.791	0.773	0.483	0.519	0.513	0.554
ChaGo-K-1	0.965	0.99	0.893	1	0.792	0.729	0.76	0.73	1	0.853	0.932	0.869	–	–	–	–	0.91	0.905	0.832	0.885
HCC-15	1.14	0.999	0.995	0.973	0.909	0.929	0.963	0.789	1.31	1.14	1.38	1.26	0.965	0.951	0.893	0.829	0.414	0.458	0.391	0.395
NCI-H23	1.04	1.08	1.05	0.925	0.516	0.615	0.704	0.587	0.315	0.263	0.256	0.294	1.09	1.1	1.06	0.9	0.315	0.319	0.43	0.414
NCI-H1395	0.945	0.92	0.929	0.881	0.694	0.65	0.628	1.05	0.404	0.41	0.379	0.399	1.04	0.873	0.931	0.829	1	1.01	1.08	0.995
NCI-H1666	0.998	1.04	0.961	0.998	0.926	1.1	1.08	0.995	0.914	0.743	0.827	0.739	0.76	0.584	0.581	0.7	0.828	0.85	0.939	0.788
NCI-H2405	1.06	1.01	1.06	1.03	1	1.03	0.971	0.978	0.839	0.727	0.755	0.659	1.06	1.08	1.16	1.02	0.634	0.615	0.672	0.703
